Two compounds from patent US20260132125A1, “PESTICIDALLY ACTIVE FUSED BICYCLIC HETEROAROMATIC COMPOUNDS” (priority 2022, published 2026) can be followed below.

What all share (format): in vivo
For experiment [1], the system named is Diabrotica balteata. Put plainly: B14a: Diabrotica balteata (corn root worm), larvicide, feeding/contact, corn seedlings. The source says:
(§1) Activity of compounds P5, P17 and P21 according to the preparatory examples and of a compound from WO 21/083936 against Spodoptera littoralis (Example B6 above), Chilo suppressalis (Example B1 above), Diabrotica balteata (Example B14a below), Plutella xylostella (Example B14b below) and Pseudoplusia includens (Example B9 above) is summarized in Table B14. B14a: Diabrotica balteata (Corn root worm). Larvicide, feeding/contact 3 Corn seedlings were placed on wetted filter paper in plastic cups, and 3 ml of diluted test solutions were pipetted onto them. The cups were infested with 10 L2 larvae and checked for mortality and growth regulation 5 days after treatment. B14b: Plutella xylostella (Diamond back moth). Larvicide L3, feeding/contact Chinese cabbage plants were sprayed with diluted test solutions in an application chamber. Cut off leaves were placed into petri dishes with wetted filter paper and infested 1 day after application with 10 L3 larvae. Samples were assessed 4 days after infestation for mortality and growth regulation.

The subject of experiment [2] is Spodoptera littoralis. Put plainly: Example B6: activity against Spodoptera littoralis (Egyptian cotton leaf worm), cotton leaf discs. The conditions noted are these: foliar; for percent control (mortality, anti-feedant effect or growth inhibition) at 200 ppm: 72 h, L1 larvae, 3 days after infestation, read-out: control (at least one of mortality, anti-feedant effect, growth inhibition). In a few lines:
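Cotton leaf discs on agar were sprayed with aqueous test solutions made from 10′000 ppm DMSO stocks, dried, then infested with five L1 larvae. Mortality, anti-feeding effect and growth inhibition were scored against untreated discs 3 days after infestation; control means any category exceeds untreated.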

In experiment [3] the test system is Plutella xylostella. In words: Example B5: activity against Plutella xylostella (diamond back moth), artificial diet, eggs. The conditions noted are these: 192 h, 8 days after infestation, read-out: effect in at least one of the two categories (mortality or growth inhibition). A digest of the protocol:
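Scoring at 8 days post-infestation compared mortality and growth inhibition with untreated controls, on diet treated at 200 ppm with water-diluted DMSO stock solutions. Diamondback moth eggs were placed on the dried diet in 24-well plates.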

For experiment [4], the system named is Carpocapsa (Cydia) pomonella. Put plainly: Example B10: Carpocapsa (Cydia) pomonella (codling moth), larvicide, feeding/contact, diet cubes. The conditions noted are these: 336 h, L1 larvae, 14 days after infestation, read-out: effect in at least one of the two categories (mortality or growth inhibition). On the procedure:
Diet cubes coated with paraffin were sprayed with diluted test solutions in an application chamber. After drying off the treated cubes (10 replicates) were infested with 1 L1 larvae. Samples were incubated at 26-27° C. and checked 14 days after infestation for mortality and growth inhibition. The following compounds gave an effect of at least 80% in at least one of the two categories (mortality or growth inhibition) at an application rate of 50 ppm: […]

Experiment [5] deals with Plutella xylostella. Put plainly: B14b: Plutella xylostella (diamond back moth), larvicide L3, feeding/contact, Chinese cabbage.
From the text: as §1

Experiment [6] has as its system Myzus persicae. In words: Example B4: activity against Myzus persicae (green peach aphid), intrinsic activity. The note with it: 120 h, test rate 12 ppm, 5 days after infestation. A digest of the protocol:
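Mortality was read 5 days after infestation. Aphids on pea seedlings fed through a stretched Parafilm membrane on inverted 24-well plates containing sucrose solution mixed with test compound, which was diluted from 10′000 ppm DMSO stock.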

The test system of experiment [7] is Tetranychus urticae. In words: Example B8: activity against Tetranychus urticae (two-spotted spider mite), bean leaf discs. The note with it: foliar, 192 h, mixed population (mobile stages), 8 days after infestation. On the procedure:
Bean leaf discs on agar in 24-well microtiter plates were sprayed with aqueous test solutions prepared from 10′000 ppm DMSO stock solutions. After drying the leaf discs were infested with a mite population of mixed ages. The samples were assessed for mortality on mixed population (mobile stages) 8 days after infestation.

For experiment [8], the system named is Pseudoplusia includens. In words: Example B9: Pseudoplusia includens (soybean looper), larvicide, feeding/contact, soybean plants. The note with it: Chrysodeixis includens; for percent effect (mortality or growth inhibition) at 50 ppm: 120 h, L2 larvae, 5 days after infestation, read-out: effect in at least one of the two categories (mortality or growth inhibition). In a few lines: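 Soybean plants sprayed, cut and held in dishes on wet filter paper; infested 1 d after application with 5 L2 larvae. Mortality and growth inhibition assessed 5 days after infestation; tested at 50 ppm.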

Experiment [9] has as its system Euschistus heros. Put plainly: Example B3: activity against Euschistus heros (neotropical brown stink bug), soybean leaves. A digest of the protocol:
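Soybean leaves on agar sprayed with aqueous dilutions of DMSO stock (10′000 ppm), dried, then infested with N2 nymphs. Mortality and growth inhibition scored against untreated samples 5 days after infestation; application rate 200 ppm.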

Experiment [10] concerns Chilo suppressalis. Put plainly: Example B1: activity against Chilo suppressalis (striped rice stemborer), artificial diet. The note with it: for percent control (mortality, anti-feedant effect or growth inhibition) at 200 ppm: 144 h, L2 larvae, 6 days after infestation, read-out: control (at least one of mortality, anti-feedant effect, growth inhibition). In a few lines:
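Diet-incorporation surface assay: aqueous dilutions of 10'000 ppm DMSO stock applied to artificial diet, dried; 6-8 L2 larvae/well; read day 6 post-infestation for mortality, antifeedant effect, growth inhibition vs untreated. Active if any category above untreated.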

Experiment [11] has as its system Diabrotica balteata. In words: Example B2: activity against Diabrotica balteata (corn root worm), maize sprouts. The conditions noted are these: 96 h, L2 larvae, 4 days after infestation, read-out: effect in at least one of the two categories (mortality or growth inhibition). A digest of the protocol:
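At 200 ppm, test solutions diluted in water from 10′000 ppm DMSO stocks were spray-applied to maize sprouts set on agar. Once dry, each well received 6–10 second-instar larvae. Four days later, mortality and growth inhibition were compared with untreated controls.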

Experiment [12] has as its system Myzus persicae. Put plainly: Example B7b: Myzus persicae feeding/contact activity, eggplant leaf discs. The conditions noted are these: foliar, 144 h, mixed ages, 6 days after infestation. On the procedure:
Eggplant leaf discs were placed onto agar in a 24-well microtiter plate and sprayed with aqueous test solutions prepared from 10′000 ppm DMSO stock solutions. After drying, the leaf discs were infested with an aphid population of mixed ages. The samples were assessed for mortality 6 days after infestation.

For the compound `C[C@H](Nc1ncnc2c(Cl)cc(C(F)(F)F)cc12)c1ncnn1-c1cc(C(N)=O)ncn1` [Compound P17, 6-[5-[(1S)-1-[[8-chloro-6-(trifluoromethyl)quinazolin-4-yl]amino]ethyl]-1,2,4-triazol-1-yl]pyrimidine-4-carboxamide], the mortality at 0.8 ppm in experiment [1] and in [5] (0.8 ppm) was 100% each time. Further, the mortality at 3.12 ppm in experiment [2] came out at 100%; in [10], 40%. Also, the percent control (mortality, anti-feedant effect or growth inhibition) at 200 ppm in experiment [2] and in [10] was not below 80% each time. Moreover, the percent effect (mortality or growth inhibition) at 200 ppm was not below 80% in experiment [3]; not below 80% in experiment [9] (120 h, N2 nymphs, 5 days after infestation, read-out: effect in at least one of the two categories (mortality or growth inhibition)); not below 80% in experiment [11]. Also, the percent effect (mortality or growth inhibition) at 50 ppm in experiment [4] and in experiment [8] was not below 80% each time. For the same compound, the mortality at 3 ppm in [5] was 100%; in experiment [8] (Pseudoplusia includens, 3 ppm), 80%. Moreover, in experiment [6], the mortality at 12 ppm is not below 80%. In addition, the results for the mortality at 200 ppm in [7] and in experiment [9] were not below 80% and 80%, respectively. For the same compound, the mortality at 12.5 ppm in experiment [8] (Pseudoplusia includens) amounted to 100%.

Take `C[C@H](Nc1ncnc2c(C(F)(F)F)cc(Cl)cc12)c1ncnn1-c1cnc(C(N)=O)cn1` [Compound P21, 5-[5-[(1S)-1-[[6-chloro-8-(trifluoromethyl)quinazolin-4-yl]amino]ethyl]-1,2,4-triazol-1-yl]pyrazine-2-carboxamide]: the mortality at 0.8 ppm in [1] is 65%. Also, in experiment [12], the mortality at 200 ppm is not below 80%. Also, the mortality at 3.12 ppm in [2] is 100%; in [10] it was 0%. The percent control (mortality, anti-feedant effect or growth inhibition) at 200 ppm in experiment [2] and in experiment [10] was not below 80% throughout. In addition, the percent effect (mortality or growth inhibition) at 200 ppm in [3] and in experiment [11] was not below 80% in each case. The compound also returned a mortality at 3 ppm in experiment [5] of 100%. This compound also returned a mortality at 12 ppm in [6] not below 80%. The percent effect (mortality or growth inhibition) at 50 ppm in experiment [8] is not below 80%. The mortality at 12.5 ppm in [8] (Pseudoplusia includens) came to 40%.
